Experimental data published in US4205952A, “Specific binding assay method and reagent means” (Technion Research & Development Foundation Ltd., priority 1976, dated 1980).

Experiments:
[1] = tested on: sepharose-bound anti-E2 (HS)-COOH antibodies; test: Inhibition and cross-reaction experiments with E2(HS)-CONH-CH2-Fc; format: binding, rabbit
Method: A fixed volume (30 μl) of a solution of iron-labelled estradiol hemisuccinate, E2 (HS)-CONH-CH2 Fc, of suitable concentration (selected from the results obtained in Step (ii) above) was mixed with a constant volume (30 μl) of solutions of various concentrations of unlabelled hapten, estradiol hemisuccinate (or estrone-17-(0-Carboxymethyl)oxime, E1 (Ox)-COOH). This mixture was added to a constant volume (60 μl) of the sepharose-bound antibodies, Vortex-mixed for 1 min. and allowed to incubate at room temperature for 30 min. The Vortex-mixing was repeated at intervals of 10 min. The assay mixture was then centrifuged for 1 min. at 3000 r.p.m. Aliquots (30 μl) were extracted with an Eppendorf pipette and injected into the graphite tube of the AA instrument. The following controls were taken through the same procedure to determine specificity: (a) a suspension of sepharose-bound antibodies without addition of metal-labelled hapten; (b) the mixtures of metal-labelled and non-labelled haptens, without addition of the sepharose-bound antibodies; (c) the mixture of metal-labelled and non-labelled haptens with addition of sepharose-bound γ-globulins of normal rabbit serum.

Anti-BSA antiserum = test: Interaction of cobalt-labelled BSA conjugate with anti-BSA antibodies, supernatant Co by AAS; format: binding
Method: (1) Anti-BSA antiserum (100 μl) was added to each of four tubes numbered 1 to 4. The same volume (100 μl) of 0.01 M phosphate buffer was added to each of additional four tubes, numbered 5 to 8.
(2) A fixed volume (100 μl) of four dilutions of BSA-Cobalt labelled conjugate, containing 0.23, 0.47, 0.94 and 1.88 μg Co/ml (or 0.8, 1.6, 3.1 and 6.2 μg BSA conjugate/100 μl of sample) added to the tubes 1 to 4 respectively and similarly to tubes 5 to 8 respectively.
(3) The solutions were mixed on a Vortex, allowed to incubate for 1 hr. at 37° C. and then for 48 hrs. at 4° C.
(4) The tubes were then centrifuged for 30 min. at 4° C.
(5) The supernatant was analyzed for Co by atomic absorption.
The readings obtained from tubes 5 through 8 served as calibrating controls. The readings from tubes 1 through 4 then indicated the amount of free cobalt-labelled BSA left in solution (by difference the "bound" BSA antigen could be determined). The atomic absorption measurements were interpolated into the calibration curve and gave 0.00, 0.06, 0.59 and 1.25 μg Co/ml of "free" hapten, equivalent to a concentration of 0,0.2,2.0 and 4.3 μg BSA conjugate/100 μl of original sample in tubes 1,2,3 and 4 respectively.

With `C[C@]12CC[C@@H]3c4ccc(O)cc4CC[C@H]3[C@@H]1CCC2=NOCC(=O)O` [E1 (OX)--COOH, Extrone oxime-0-carboxymethyl] the “Inhibition of E2 (HS)--CONH--CH2 Fc (27.5 × 10^-7 M), cross-reaction” value (“Inhibition of E2 … cross-reaction” for short) ([1]; unlabelled hapten 3.75 × 10^-7 M) was 0.5%, the “Inhibition of E2 … cross-reaction” value ([1]; unlabelled hapten 7.5 × 10^-7 M) was 3.0% and the “Inhibition of E2 … cross-reaction” value ([1]; unlabelled hapten 15.0 × 10^-7 M (E1 column)) was 6.5%. For the same compound, the “Inhibition of E2 … cross-reaction” value ([1]; unlabelled hapten 37.5 × 10^-7 M) was 9.5%, the “Inhibition of E2 … cross-reaction” value ([1]; unlabelled hapten 75.0 × 10^-7 M) was 25.5% and the “Inhibition of E2 … cross-reaction” value ([1]; unlabelled hapten 150.0 × 10^-7 M (E1 column)) was 50.5%.
With `C[C@]12CC[C@@H]3c4ccc(O)cc4CC[C@H]3[C@@H]1CC[C@@H]2OC(=O)CCC(=O)O` [E2 (HS)--COOH, Estradiol-17β-hemisuccinate] the “Inhibition of E2 (HS)--CONH--CH2 Fc (27.5 × 10^-7 M)” value ([1]; unlabelled hapten 3.6 × 10^-7 M) was 8.5%, the “Inhibition of E2 (HS)--CONH--CH2 Fc (27.5 × 10^-7 M)” value ([1]; unlabelled hapten 7.2 × 10^-7 M) was 17.5% and the “Inhibition of E2 (HS)--CONH--CH2 Fc (27.5 × 10^-7 M)” value ([1]; unlabelled hapten 15.0 × 10^-7 M (E2 column)) was 21.5%. For the same compound, the “Inhibition of E2 (HS)--CONH--CH2 Fc (27.5 × 10^-7 M)” value ([1]; unlabelled hapten 36.0 × 10^-7 M) was 43.5%, the “Inhibition of E2 (HS)--CONH--CH2 Fc (27.5 × 10^-7 M)” value ([1]; unlabelled hapten 72.0 × 10^-7 M) was 48.0% and the “Inhibition of E2 (HS)--CONH--CH2 Fc (27.5 × 10^-7 M)” value ([1]; unlabelled hapten 150.0 × 10^-7 M (E2 column)) was 56.0%. The “Inhibition of E2 (HS)--CONH--CH2 Fc (27.5 × 10^-7 M)” value ([1]; unlabelled hapten 300.0 × 10^-7 M) was 63.5%.
“BSA-Cobalt labelled conjugate: Bovine serum albumin labelled with carboxycobalticenium N-succinimide ester, about 35 haptens per mole” was tested, and the “"free" hapten in supernatant” value (Anti-BSA antiserum; tube 1: conjugate 0.23 μg Co/ml, 100 μl + 100 μl antiserum, 1 hr 37° C., 48 hrs 4° C.) was 0.00 μg Co/ml, the “"free" hapten in supernatant” value (Anti-BSA antiserum; tube 2: conjugate 0.47 μg Co/ml) was 0.06 μg Co/ml and the “"free" hapten in supernatant” value (Anti-BSA antiserum; tube 3: conjugate 0.94 μg Co/ml) was 0.59 μg Co/ml. The “free conjugate, equivalent concentration” value (Anti-BSA antiserum; tube 4: 6.2 μg BSA conjugate/100 μl added) was 4.3 μg BSA conjugate/100 μl of original sample and the “"free" hapten in supernatant” value (Anti-BSA antiserum; tube 4: conjugate 1.88 μg Co/ml) was 1.25 μg Co/ml.
